According to PubChem BioAssay AID248 (DTP/NCI, 2004):
Several values for one entry are separate records, joined by “and”; a condition that tells them apart may be missing. Identical values can stand only once. Toxic doses and inconclusive results are not listed. Cut-off read from the data, not from the text of the source: active = T/C of 150% or more; inactive = T/C below 125%.

Test system: L1210 leukemia ip in BDF1 mice, survival T/C
Test: NCI In Vivo Anticancer Drug Screen. Data for tumor model L1210 Leukemia (intraperitoneal) in B6D2F1 (BDF1) mice
Conditions: endpoint: mean survival time, higher = longer survival
Outline: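 Mice bearing the transplanted tumor received compound or vehicle. Survival of the treated group was divided by that of the vehicle-treated control group to give the ratio.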

[1] = dose: 100.0 mg/kg/injection, schedule: Q04DX003 (ip), vehicle: saline with Tween-80
[2] = dose: 200.0 mg/kg/injection, schedule: Q04DX003 (ip), vehicle: saline with Tween-80
[3] = dose: 400.0 mg/kg/injection, schedule: Q04DX003 (ip), vehicle: saline with Tween-80
[4] = dose: 100.0 mg/kg/injection, schedule: Q01DX009 (ip), vehicle: saline with Tween-80
[5] = dose: 200.0 mg/kg/injection, schedule: Q01DX009 (ip), vehicle: saline with Tween-80
[6] = dose: 400.0 mg/kg/injection, schedule: Q01DX009 (ip), vehicle: saline with Tween-80
[7] = dose: 100.0 mg/kg/injection, schedule: Q01DX001 (ip), vehicle: saline
[8] = dose: 200.0 mg/kg/injection, schedule: Q01DX001 (ip), vehicle: saline
[9] = dose: 400.0 mg/kg/injection, schedule: Q01DX001 (ip), vehicle: saline
[10] = dose: 50.0 mg/kg/injection, schedule: Q01DX001 (ip), vehicle: saline
[11] = dose: 37.5 mg/kg/injection, schedule: Q04DX003 (ip), vehicle: saline
[12] = dose: 75.0 mg/kg/injection, schedule: Q01DX001 (ip), vehicle: saline
[13] = dose: 100.0 mg/kg/injection, schedule: Q01DX001 (ip), vehicle: Klucel (hydroxypropylcellulose) (HPC)
[14] = dose: 100.0 mg/kg/injection, schedule: Q01DX009 (ip), vehicle: Klucel (hydroxypropylcellulose) (HPC)
[15] = dose: 100.0 mg/kg/injection, schedule: Q04DX002 (ip), vehicle: Klucel (hydroxypropylcellulose) (HPC)
[16] = dose: 200.0 mg/kg/injection, schedule: Q01DX001 (ip), vehicle: Klucel (hydroxypropylcellulose) (HPC)
[17] = dose: 200.0 mg/kg/injection, schedule: Q01DX009 (ip), vehicle: Klucel (hydroxypropylcellulose) (HPC)
[18] = dose: 200.0 mg/kg/injection, schedule: Q04DX002 (ip), vehicle: Klucel (hydroxypropylcellulose) (HPC)
[19] = dose: 400.0 mg/kg/injection, schedule: Q04DX002 (ip), vehicle: Klucel (hydroxypropylcellulose) (HPC)

Measured: T/C

COC(OC)c1[nH]c(=S)[nH]c(=O)c1C
inactive: [1] 107 % of control | [2] 105 % of control | [3] 105 % of control

N#Cc1c(N)sc2c1CCCC2
inactive: [4] 98 % of control | [1] 102 % of control | [5] 95 % of control | [2] 98 % of control | [6] 101 % of control | [3] 101 % of control

Cc1cc(C(=O)O)cc(C)c1NC(=O)N(CCCl)N=O
inactive: dose: 46.0 mg/kg/injection, schedule: Q01DX001 (ip), vehicle: other 91 % of control | dose: 62.0 mg/kg/injection, schedule: Q01DX001 (ip), vehicle: other 90 % of control

CC(C)C(C(=O)O)C(=O)O
inactive: [7] 102 % of control | [8] 104 % of control | [9] 112 % of control

C=CCNCC1OC(OC)C2OC(C)(C)OC12 (stereo unspecified)
inactive: dose: 50.0 mg/kg/injection, schedule: Q01DX009 (ip), vehicle: saline 101 % of control | dose: 100.0 mg/kg/injection, schedule: Q01DX009 (ip), vehicle: saline 104 % of control | dose: 100.0 mg/kg/injection, schedule: Q04DX003 (ip), vehicle: saline 109 % of control | dose: 200.0 mg/kg/injection, schedule: Q01DX009 (ip), vehicle: saline 104 % of control | dose: 200.0 mg/kg/injection, schedule: Q04DX003 (ip), vehicle: saline 102 % of control

Nc1ncnc2c1c(Br)cn2C1OC(CO)C(O)C1O (stereo unspecified)
inactive: dose: 5.0 mg/kg/injection, schedule: Q01DX001 (ip), vehicle: carboxymethylcellulose (CMC) 106 % of control

c1ccc(C2(c3ccccc3)CC([P+](c3ccccc3)(c3ccccc3)c3ccccc3)N=N2)cc1 (stereo unspecified)
inactive: dose: 10.0 mg/kg/injection, schedule: Q01DX001 (ip), vehicle: saline 103 % of control | dose: 20.0 mg/kg/injection, schedule: Q01DX001 (ip), vehicle: saline 111 % of control | dose: 40.0 mg/kg/injection, schedule: Q01DX001 (ip), vehicle: saline 112 % of control

Fc1ccc(NC(=S)Nc2ccc(F)cc2)cc1
inactive: dose: 15.0 mg/kg/injection, schedule: Q01DX Z (ip), vehicle: carboxymethylcellulose (CMC) 98 % of control | dose: 30.0 mg/kg/injection, schedule: Q01DX Z (ip), vehicle: carboxymethylcellulose (CMC) 101 % of control | [10] 117 % of control | dose: 60.0 mg/kg/injection, schedule: Q01DX Z (ip), vehicle: carboxymethylcellulose (CMC) 101 % of control and 104 % of control | [7] 113 % of control | dose: 120.0 mg/kg/injection, schedule: Q01DX Z (ip), vehicle: carboxymethylcellulose (CMC) 101 % of control and 106 % of control | [8] 120 % of control | dose: 240.0 mg/kg/injection, schedule: Q01DX Z (ip), vehicle: carboxymethylcellulose (CMC) 100 % of control | dose: 240.0 mg/kg/injection, schedule: Q01DX Z (oral), vehicle: carboxymethylcellulose (CMC) 95 % of control | dose: 480.0 mg/kg/injection, schedule: Q01DX Z (ip), vehicle: carboxymethylcellulose (CMC) 106 % of control | dose: 480.0 mg/kg/injection, schedule: Q01DX Z (oral), vehicle: carboxymethylcellulose (CMC) 104 % of control | dose: 960.0 mg/kg/injection, schedule: Q01DX Z (oral), vehicle: carboxymethylcellulose (CMC) 107 % of control | dose: 1920.0 mg/kg/injection, schedule: Q01DX Z (oral), vehicle: carboxymethylcellulose (CMC) 100 % of control

C[N+](C)(C)CCC[N+]1(C)CCC2(CCCC(C(F)(F)F)C2)CC1 (stereo unspecified)
inactive: [10] 98 % of control | [7] 104 % of control | [8] 96 % of control

CCN(CC)C1=C(Cl)C(=O)C(=O)c2cccnc21
inactive: dose: 18.8 mg/kg/injection, schedule: Q04DX003 (ip), vehicle: saline 97 % of control | [11] 103 % of control | [12] 97 % of control

C/C=C/C(=O)Nc1cccc(OC(=O)NC(C)C)c1
inactive: [1] 95 % of control | [2] 93 % of control | [3] 87 % of control

C=C1OC(n2cnc3c(=N)n(O)cnc32)C2OC(C)(C)OC12 (stereo unspecified)
inactive: dose: 100.0 mg/kg/injection, schedule: Q01DX005 (ip), vehicle: saline 96 % of control | dose: 200.0 mg/kg/injection, schedule: Q01DX005 (ip), vehicle: saline 102 % of control

O=C(Nc1ccccc1F)OCc1ccco1
inactive: [13] 99 % of control | [14] 95 % of control and 102 % of control | [15] 102 % of control and 106 % of control | [16] 99 % of control | [17] 95 % of control and 91 % of control | [18] 106 % of control and 118 % of control | dose: 400.0 mg/kg/injection, schedule: Q01DX001 (ip), vehicle: Klucel (hydroxypropylcellulose) (HPC) 94 % of control | dose: 400.0 mg/kg/injection, schedule: Q01DX009 (ip), vehicle: Klucel (hydroxypropylcellulose) (HPC) 98 % of control and 102 % of control | [19] 96 % of control and 104 % of control

CCC(C)(C)c1ccc(OCCCCCCN2CCN(c3ccc(C)c(Cl)c3)CC2)cc1
inactive: [12] 102 % of control | dose: 150.0 mg/kg/injection, schedule: Q01DX001 (ip), vehicle: saline 110 % of control

CN(C)C(=Nc1ccccc1)N(C)N
inactive: [11] 102 % of control | dose: 75.0 mg/kg/injection, schedule: Q04DX003 (ip), vehicle: saline 101 % of control | dose: 150.0 mg/kg/injection, schedule: Q04DX003 (ip), vehicle: saline 102 % of control

CC(=O)SCCC(=O)NCNC(=O)CCSC(C)=O
inactive: [4] 96 % of control | [1] 93 % of control | [5] 96 % of control | [2] 93 % of control | [6] 100 % of control | [3] 92 % of control

OC(c1nc2ccc(Cl)cc2[nH]1)C(O)C(O)C(O)c1nc2ccc(Cl)cc2[nH]1 (stereo unspecified)
inactive: dose: 100.0 mg/kg/injection, schedule: Q01DX001 (ip), vehicle: carboxymethylcellulose (CMC) 90 % of control | dose: 200.0 mg/kg/injection, schedule: Q01DX001 (ip), vehicle: carboxymethylcellulose (CMC) 101 % of control | dose: 400.0 mg/kg/injection, schedule: Q01DX001 (ip), vehicle: carboxymethylcellulose (CMC) 103 % of control

C[C@@H]1C[C@@]2(C)[C@@H](CC[C@@H]3[C@@H]2CC[C@]2(C)OC(=O)CC[C@@H]32)CC1=O
inactive: dose: 50.0 mg/kg/injection, schedule: Q01DX009 (ip), vehicle: Klucel (hydroxypropylcellulose) (HPC) 95 % of control | [14] 97 % of control | dose: 100.0 mg/kg/injection, schedule: Q04DX003 (ip), vehicle: other 98 % of control | [17] 100 % of control | dose: 200.0 mg/kg/injection, schedule: Q04DX003 (ip), vehicle: other 101 % of control

COc1c(OC)c(C(C)C)c2c(OC(C)=O)c(C)c(-c3c(C)c(OC(C)=O)c4c(C(C)C)c(OC)c(OC)c5c4c3OC5=O)c3c2c1C(=O)O3
inactive: dose: 50.0 mg/kg/injection, schedule: Q01DX001 (ip), vehicle: Klucel (hydroxypropylcellulose) (HPC) 100 % of control | [13] 93 % of control | [16] 98 % of control

O=C(O)CCC1COc2ccccc2O1 (stereo unspecified)
inactive: [10] 100 % of control | [7] 108 % of control | [8] 114 % of control | [9] 100 % of control

CC(=O)N(NC(=O)c1ccccn1)C(C)=O
inactive: dose: 100.0 mg/kg/injection, schedule: Q01DX001 (ip), vehicle: water 97 % of control | dose: 200.0 mg/kg/injection, schedule: Q01DX001 (ip), vehicle: water 106 % of control

Cc1ccc(S(=O)(=O)NC(N)=NCCCC(NC(=O)OC(C)(C)C)C(=O)O)cc1 (stereo unspecified)
inactive: [4] 89 % of control | [5] 86 % of control | [6] 86 % of control

O=C(O)COc1c(Cl)cc(Cl)cc1Cl
inactive: [15] 100 % of control | [18] 100 % of control | [19] 96 % of control

CC(C)(C)c1cc(C=C2C(=O)c3ccccc3C2=O)cc(C(C)(C)C)c1O
inactive: dose: 100.0 mg/kg/injection, schedule: Q04DX002 (ip), vehicle: saline with Tween-80 87 % of control | dose: 200.0 mg/kg/injection, schedule: Q04DX002 (ip), vehicle: saline with Tween-80 90 % of control | dose: 400.0 mg/kg/injection, schedule: Q04DX002 (ip), vehicle: saline with Tween-80 93 % of control

N#CC(CC(=O)c1ccc(Cl)cc1)c1ccccc1 (stereo unspecified)
inactive: [4] 91 % of control | [5] 96 % of control | [6] 91 % of control
